Reference: US9751869B2, “LXR modulators” (BRISTOL-MYERS SQUIBB COMPANY, priority 2013, dated 2017)

Target: T1, LXRβ (Homo sapiens, UniProt P55055)
T1 construct: Co-transfection expression plasmids, comprising full-length LXRα (pCMX-h LXRα or LXRβ (pCMX-hLXRβ)); expressed in transfected cells; host or cells: CV-1 African green monkey kidney cells, transient transfection with pCMX-hLXRβ
T1 sequence (P55055 1-460): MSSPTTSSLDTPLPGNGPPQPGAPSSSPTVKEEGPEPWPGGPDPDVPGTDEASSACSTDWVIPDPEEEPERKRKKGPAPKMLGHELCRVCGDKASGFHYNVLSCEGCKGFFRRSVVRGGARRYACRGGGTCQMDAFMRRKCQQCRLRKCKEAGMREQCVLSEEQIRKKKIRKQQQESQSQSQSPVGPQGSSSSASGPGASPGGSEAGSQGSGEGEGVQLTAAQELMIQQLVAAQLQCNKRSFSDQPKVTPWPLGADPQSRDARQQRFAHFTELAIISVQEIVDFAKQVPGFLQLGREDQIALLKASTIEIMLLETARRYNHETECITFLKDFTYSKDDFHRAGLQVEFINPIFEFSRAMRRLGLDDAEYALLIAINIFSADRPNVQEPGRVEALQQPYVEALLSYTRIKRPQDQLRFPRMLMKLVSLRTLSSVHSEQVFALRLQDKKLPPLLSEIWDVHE
T1 sequence (P19793 1-462 partner): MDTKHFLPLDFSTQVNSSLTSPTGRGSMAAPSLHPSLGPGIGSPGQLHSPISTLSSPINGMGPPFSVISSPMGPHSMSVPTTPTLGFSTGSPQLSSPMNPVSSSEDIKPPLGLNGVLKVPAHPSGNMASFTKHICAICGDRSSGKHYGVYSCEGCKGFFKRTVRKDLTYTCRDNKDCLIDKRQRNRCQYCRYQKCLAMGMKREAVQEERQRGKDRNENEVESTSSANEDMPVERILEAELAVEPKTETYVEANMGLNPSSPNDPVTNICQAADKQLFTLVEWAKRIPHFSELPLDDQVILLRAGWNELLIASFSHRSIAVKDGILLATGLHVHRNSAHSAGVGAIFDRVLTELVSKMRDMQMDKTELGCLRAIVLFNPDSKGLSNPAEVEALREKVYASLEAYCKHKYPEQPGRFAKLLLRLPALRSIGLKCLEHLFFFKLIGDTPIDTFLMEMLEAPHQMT
Experiment: LXR/LXRE co-transfection assay (luciferase reporter) in CV-1 cells, LXRβ
Type: cell-based
Conditions: for EC50: CV-1 cells transfected with pCMX-hLXRβ and LXREx1-Tk-Luciferase, 20 hours incubation, read-out: LXRbeta agonism EC50; for Emax: CV-1 cells, relative to maximum response of high control N-(3-((4-fluorophenyl)-(naphthalene-2-sulfonyl)amino)propyl)-2,2-dimethylpropionamide, read-out: LXRbeta % EFFICACY
How it was run: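 CV-1 cells transiently co-transfected with full-length human LXRβ, LXRE-Tk-luciferase reporter and β-galactosidase control, then exposed to compound (≤0.5% DMSO) for 20 h at 37 °C before luminescence read. EC50 from 10-point, half-log dose curves; efficacy relative to the sulfonamide high control, means of 2–3 experiments.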

EC50 [nM] | Emax [%] | Compound
125 | 86 | Cc1nc(-c2ccc(OC(F)(F)F)cc2)c(-c2cc(-c3cc(F)c(CO)c(S(C)(=O)=O)c3)ccc2-n2ccc(CC#N)n2)o1 [Example 370]
61 | 96 | COCC(F)(F)c1cc(-c2ccc(-c3cc(F)c(CO)c(S(C)(=O)=O)c3)cc2-n2nncc2-c2ccc(OC(F)(F)F)cc2)n(C)n1 [Example 17, [4′-{3-[1,1-difluoro-2-(methyloxy)ethyl]-1-methyl-1H-pyrazol-5-yl}-3-fluoro-5-(methylsulfonyl)-3′-(5-{4-[(trifluoromethyl)oxy]phenyl}-1H-1,2,3-triazol-1-yl)biphenyl-4-yl]methanol]
11 | 95 | Cn1nc(C(F)(F)F)cc1-c1ccc(-c2cc(F)c(CO)c(S(C)(=O)=O)c2)cc1-n1nncc1-c1ccc(OC(F)(F)F)cc1 [Example 15, (3-fluoro-4′-(1-methyl-3-(trifluoromethyl)-1H-pyrazol-5-yl)-5-(methylsulfonyl)-3′-(5-(4-(trifluoromethoxy)phenyl)-1H-1,2,3-triazol-1-yl)biphenyl-4-yl)methanol]
176 | 31 | Cc1nc(-c2ccc(OC(F)(F)F)cc2)c(-c2cc(-c3cccc(S(C)(=O)=O)c3)ccc2-n2cc(Cl)c(C(C)(C)O)n2)o1 [Example 441, 2-(4-chloro-1-(3-(2-methyl-4-(4-(trifluoromethoxy)phenyl)oxazol-5-yl)-3′-(methylsulfonyl)-[1,1′-biphenyl]-4-yl)-1H-pyrazol-3-yl) propan-2-ol]
2520 | 30 | Cc1nc(-c2ccc3c(c2)OC(F)(F)O3)c(-c2cc(-c3cc(F)c(CO)c(S(C)(=O)=O)c3)ccc2-c2cc(C(F)(F)c3nnc[nH]3)nn2C)o1 [Example 52, (4′-(3-(difluoro(4H-1,2,4-triazol-3-yl)methyl)-1-methyl-1H-pyrazol-5-yl)-3′-(4-(2,2-difluorobenzo[d][1,3]dioxol-5-yl)-2-methyloxazol-5-yl)-3-fluoro-5-(methylsulfonyl)biphenyl-4-yl)methanol]
13 | 78 | Cc1nc(-c2ccc(OC(F)F)c(F)c2)c(-c2cc(-c3cc(F)c(CO)c(S(C)(=O)=O)c3)ccc2-n2cc(Cl)c(C(F)(F)F)n2)o1 [Example 434, (4′-(4-chloro-3-(trifluoromethyl)-1H-pyrazol-1-yl)-3′-(4-(4-(difluoromethoxy)-3-fluorophenyl)-2-methyloxazol-5-yl)-3-fluoro-5-(methylsulfonyl)-[1,1′-biphenyl]-4-yl)methanol]
42 | 55 | Cc1nc(-c2ccc3c(c2)OC(F)(F)O3)c(-c2cc(-c3cccc(S(C)(=O)=O)c3)ccc2-c2cc(C(F)(F)C(N)=O)nn2C)o1 [Example 73, 2-(5-(3-(4-(2,2-difluorobenzo[d][1,3]dioxol-5-yl)-2-methyloxazol-5-yl)-3′-(methylsulfonyl)biphenyl-4-yl)-1-methyl-1H-pyrazol-3-yl)-2,2-difluoroacetamide]
163 | 89 | COCC(F)(F)c1cc(-c2ccc(-c3cccc(S(C)(=O)=O)c3)cc2-n2nncc2-c2ccc(OC(F)(F)F)cc2)n(C)n1 [Example 16, 1-[4-{3-[1,1-difluoro-2-(methyloxy)ethyl]-1-methyl-1H-pyrazol-5-yl}-3′-(methylsulfonyl)biphenyl-3-yl]-5-{4-[(trifluoromethyl)oxy]phenyl}-1H-1,2,3-triazole]
20 | 82 | Cc1nc(-c2cc(-c3cc(F)c(CO)c(S(C)(=O)=O)c3)ccc2-n2ccc(C(F)(F)F)n2)c(-c2cc(F)c(OC(F)F)c(F)c2)o1 [Example 410, (3′-(5-(4-(difluoromethoxy)-3,5-difluorophenyl)-2-methyloxazol-4-yl)-3-fluoro-5-(methylsulfonyl)-4′-(3-(trifluoromethyl)-1H-pyrazol-1-yl)biphenyl-4-yl)methanol]
123 | 38 | Cc1nc(-c2ccc(OC(F)(F)F)cc2)c(-c2cc(-c3cc(F)c(CO)c(S(C)(=O)=O)c3)ccc2-n2ccc(C(=O)NCC(F)(F)F)n2)o1 [Example 372]
178 | 47 | Cc1nc(-c2ccc3c(c2)OC(F)(F)O3)c(-c2cc(-c3cc(F)c(CO)c(S(C)(=O)=O)c3)ccc2-c2cc(C(C)OC(N)=O)nn2C)o1 (stereo not shown) [Example 131, 1-(5-(3-(4-(2,2-difluorobenzo[d][1,3]dioxol-5-yl)-2-methyloxazol-5-yl)-3′-fluoro-4′-(hydroxymethyl)-5′-(methylsulfonyl)-[1,1′-biphenyl]-4-yl)-1-methyl-1H-pyrazol-3-yl)ethyl carbamate]
356 | 52 | Cc1nc(-c2ccc3c(c2)OC(F)(F)O3)c(-c2cc(-c3cccc(S(C)(=O)=O)c3)ccc2-c2cc(C(=O)NCC3CC3)nn2C)o1 [Example 109, N-(cyclopropylmethyl)-5-(3-(4-(2,2-difluorobenzo[d][1,3]dioxol-5-yl)-2-methyloxazol-5-yl)-3′-(methylsulfonyl)-[1,1′-biphenyl]-4-yl)-1-methyl-1H-pyrazole-3-carboxamide]
878 | 63 | Cn1nc(C(F)(F)C(C)(C)O)cc1-c1ccc(-c2cc(F)c(CO)c(S(C)(=O)=O)c2)cc1-n1nncc1-c1ccc2c(c1)OC(F)(F)O2 [Example 34, 1-(5-(3-(5-(2,2-difluorobenzo[d][1,3]dioxol-5-yl)-1H-1,2,3-triazol-1-yl)-3′-fluoro-4′-(hydroxymethyl)-5′-(methylsulfonyl)-[1,1′-biphenyl]-4-yl)-1-methyl-1H-pyrazol-3-yl)-1,1-difluoro-2-methylpropan-2-ol]
71 | 80 | Cc1nc(-c2ccc(OC(F)(F)F)cc2)c(-c2cc(-c3cc(F)c(CO)c(S(C)(=O)=O)c3)ccc2-n2ccc(C#N)n2)o1 [Example 319, 1-(3′-fluoro-4′-(hydroxymethyl)-3-(2-methyl-4-(4-(trifluoromethoxy)phenyl)oxazol-5-yl)-5′-(methylsulfonyl)biphenyl-4-yl)-1H-pyrazole-3-carbonitrile]
19 | 65 | Cc1nc(-c2ccc3c(c2)OC(F)(F)O3)c(-c2cc(-c3cc(F)c(CO)c(S(C)(=O)=O)c3)ccc2-c2cc(C(C)(F)F)nn2C)o1 [Example 95, (3′-(4-(2,2-difluorobenzo[d][1,3]dioxol-5-yl)-2-methyloxazol-5-yl)-4′-(3-(1,1-difluoroethyl)-1-methyl-1H-pyrazol-5-yl)-3-fluoro-5-(methylsulfonyl)biphenyl-4-yl)methanol]
776 | 79 | Cn1nc(C(=O)NCC(F)(F)F)cc1-c1ccc(-c2cccc(S(C)(=O)=O)c2)cc1-n1nncc1-c1ccc(OC(F)(F)F)cc1 [Example 39, 1-methyl-5-[3′-(methylsulfonyl)-3-(5-{4-[(trifluoromethyl)oxy]phenyl}-1H-1,2,3-triazol-1-yl)biphenyl-4-yl]-N-(2,2,2-trifluoroethyl)-1H-pyrazole-3-carboxamide]
3 | 92 | Cc1nc(-c2ccc3c(c2)OC(F)(F)O3)c(-c2cc(-c3cc(F)c(CO)c(S(C)(=O)=O)c3)ccc2-n2nc(C(F)(F)F)cc2C)o1 [Example 329, (3′-(4-(2,2-difluorobenzo[d][1,3]dioxol-5-yl)-2-methyloxazol-5-yl)-3-fluoro-4′-(5-methyl-3-(trifluoromethyl)-1H-pyrazol-1-yl)-5-(methylsulfonyl)biphenyl-4-yl)methanol]
